Numbers after ± are expanded uncertainties.
Assay: xn = mol fraction of the nth substance listed
Settings: Liquid, Vibrating tube method

c1ccsc1 [thiophene] + O=C=O
Settings	mass density [kg/m3]
322.95 K, 19000 kPa, x2 = 0.199	1032.53 ± 0.43
322.96 K, 8142 kPa, x2 = 0.5661	964.89 ± 0.43
322.96 K, 9024 kPa, x2 = 0.5661	967.04 ± 0.43
322.96 K, 10004 kPa, x2 = 0.5661	969.41 ± 0.43
322.96 K, 11043 kPa, x2 = 0.5661	971.85 ± 0.43
322.96 K, 12049 kPa, x2 = 0.5661	974.11 ± 0.43
322.96 K, 13009 kPa, x2 = 0.5661	976.27 ± 0.43
322.96 K, 14014 kPa, x2 = 0.5661	978.41 ± 0.43
322.96 K, 15031 kPa, x2 = 0.5661	980.61 ± 0.43
322.96 K, 16040 kPa, x2 = 0.5661	982.75 ± 0.43
322.96 K, 17014 kPa, x2 = 0.5661	984.76 ± 0.43
322.96 K, 18012 kPa, x2 = 0.5661	986.77 ± 0.42
322.96 K, 19036 kPa, x2 = 0.5661	988.76 ± 0.42
323.01 K, 1047 kPa, x2 = 0	1028.97 ± 0.44
323.01 K, 2059 kPa, x2 = 0	1029.98 ± 0.44
323.01 K, 3070 kPa, x2 = 0	1031.02 ± 0.44
323.01 K, 4047 kPa, x2 = 0	1031.99 ± 0.44
323.01 K, 5002 kPa, x2 = 0	1032.9 ± 0.44
323.01 K, 6005 kPa, x2 = 0	1033.9 ± 0.44
323.01 K, 7068 kPa, x2 = 0	1034.92 ± 0.44
323.01 K, 8021 kPa, x2 = 0	1035.81 ± 0.44
323.01 K, 9013 kPa, x2 = 0	1036.76 ± 0.44
323.01 K, 10005 kPa, x2 = 0	1037.67 ± 0.44
323.01 K, 10991 kPa, x2 = 0	1038.62 ± 0.44
323.01 K, 12034 kPa, x2 = 0	1039.58 ± 0.44
323.01 K, 12977 kPa, x2 = 0	1040.44 ± 0.44
323.01 K, 13999 kPa, x2 = 0	1041.38 ± 0.44
323.01 K, 14991 kPa, x2 = 0	1042.26 ± 0.44
323.01 K, 15995 kPa, x2 = 0	1043.17 ± 0.44
323.01 K, 16998 kPa, x2 = 0	1044.03 ± 0.44
323.01 K, 17983 kPa, x2 = 0	1044.93 ± 0.44
323.01 K, 18951 kPa, x2 = 0	1045.78 ± 0.44
323.06 K, 10088 kPa, x2 = 0.9217	726.5 ± 1
323.06 K, 11019 kPa, x2 = 0.9217	748.28 ± 0.83
323.06 K, 12026 kPa, x2 = 0.9217	766.89 ± 0.74
323.06 K, 13007 kPa, x2 = 0.9217	781.83 ± 0.69
323.06 K, 14004 kPa, x2 = 0.9217	794.96 ± 0.66
323.06 K, 15030 kPa, x2 = 0.9217	806.9 ± 0.63
323.06 K, 16054 kPa, x2 = 0.9217	817.45 ± 0.61
323.06 K, 17033 kPa, x2 = 0.9217	826.57 ± 0.59
323.06 K, 18006 kPa, x2 = 0.9217	835.18 ± 0.58
323.06 K, 19038 kPa, x2 = 0.9217	843.46 ± 0.57
323.06 K, 20051 kPa, x2 = 0.9217	850.95 ± 0.56
323.06 K, 21005 kPa, x2 = 0.9217	857.68 ± 0.54
323.06 K, 22019 kPa, x2 = 0.9217	864.36 ± 0.54
323.06 K, 23033 kPa, x2 = 0.9217	870.67 ± 0.53
323.06 K, 24027 kPa, x2 = 0.9217	876.59 ± 0.53
323.06 K, 24980 kPa, x2 = 0.9217	882.14 ± 0.51
323.08 K, 6997 kPa, x2 = 0.3818	994.07 ± 0.43
323.08 K, 8053 kPa, x2 = 0.3818	995.85 ± 0.43
323.08 K, 9009 kPa, x2 = 0.3818	997.45 ± 0.43
323.08 K, 10081 kPa, x2 = 0.3818	999.25 ± 0.43
323.08 K, 11041 kPa, x2 = 0.3818	1000.81 ± 0.43
323.08 K, 12024 kPa, x2 = 0.3818	1002.4 ± 0.42
323.08 K, 12998 kPa, x2 = 0.3818	1003.93 ± 0.42
323.08 K, 14011 kPa, x2 = 0.3818	1005.51 ± 0.42
323.08 K, 15018 kPa, x2 = 0.3818	1007.08 ± 0.42
323.08 K, 15936 kPa, x2 = 0.3818	1008.44 ± 0.42
323.08 K, 17059 kPa, x2 = 0.3818	1010.13 ± 0.42
323.08 K, 17995 kPa, x2 = 0.3818	1011.52 ± 0.42
323.08 K, 19010 kPa, x2 = 0.3818	1013.01 ± 0.42
323.09 K, 8069 kPa, x2 = 0.6996	950.76 ± 0.43
323.09 K, 9063 kPa, x2 = 0.6996	953.71 ± 0.43
323.09 K, 10074 kPa, x2 = 0.6996	956.72 ± 0.46
323.09 K, 11045 kPa, x2 = 0.6996	959.45 ± 0.45
323.09 K, 11999 kPa, x2 = 0.6996	962.01 ± 0.45
323.09 K, 13038 kPa, x2 = 0.6996	964.85 ± 0.45
323.09 K, 14005 kPa, x2 = 0.6996	967.35 ± 0.44
323.09 K, 14998 kPa, x2 = 0.6996	969.82 ± 0.44
323.09 K, 16004 kPa, x2 = 0.6996	972.38 ± 0.44
323.09 K, 17044 kPa, x2 = 0.6996	974.92 ± 0.44
323.09 K, 17927 kPa, x2 = 0.6996	976.97 ± 0.52
323.15 K, 101 kPa, x2 = 0	1026.98 ± 0.44
332.79 K, 7987 kPa, x2 = 0.5661	943.05 ± 0.43
332.79 K, 9035 kPa, x2 = 0.5661	945.99 ± 0.43
332.79 K, 10035 kPa, x2 = 0.5661	948.77 ± 0.43
332.79 K, 11015 kPa, x2 = 0.5661	951.37 ± 0.43
332.79 K, 12021 kPa, x2 = 0.5661	953.97 ± 0.43
332.79 K, 13022 kPa, x2 = 0.5661	956.49 ± 0.43
332.79 K, 14010 kPa, x2 = 0.5661	958.85 ± 0.43
332.79 K, 15020 kPa, x2 = 0.5661	961.27 ± 0.43
332.79 K, 16037 kPa, x2 = 0.5661	963.66 ± 0.43
332.79 K, 17014 kPa, x2 = 0.5661	965.85 ± 0.43
332.79 K, 18001 kPa, x2 = 0.5661	968.08 ± 0.43
332.79 K, 19018 kPa, x2 = 0.5661	970.3 ± 0.43
332.85 K, 1015 kPa, x2 = 0	1016.93 ± 0.44
332.85 K, 2035 kPa, x2 = 0	1018 ± 0.44
332.85 K, 3004 kPa, x2 = 0	1019.06 ± 0.44
332.85 K, 3964 kPa, x2 = 0	1020.05 ± 0.44
332.85 K, 4991 kPa, x2 = 0	1021.14 ± 0.44
332.85 K, 5081 kPa, x2 = 0.199	1002.75 ± 0.43
332.85 K, 6001 kPa, x2 = 0	1022.17 ± 0.44
332.85 K, 6051 kPa, x2 = 0.199	1004.04 ± 0.43
332.85 K, 7014 kPa, x2 = 0	1023.21 ± 0.44
332.85 K, 7075 kPa, x2 = 0.199	1005.38 ± 0.43
332.85 K, 7998 kPa, x2 = 0	1024.2 ± 0.44
332.85 K, 8033 kPa, x2 = 0.199	1006.63 ± 0.43
332.85 K, 9006 kPa, x2 = 0.199	1007.88 ± 0.43
332.85 K, 9009 kPa, x2 = 0	1025.23 ± 0.44
332.85 K, 9995 kPa, x2 = 0	1026.19 ± 0.44
332.85 K, 10006 kPa, x2 = 0.199	1009.13 ± 0.43
332.85 K, 10989 kPa, x2 = 0	1027.18 ± 0.44
332.85 K, 11013 kPa, x2 = 0.199	1010.42 ± 0.43
332.85 K, 12006 kPa, x2 = 0	1028.17 ± 0.44
332.85 K, 12053 kPa, x2 = 0.199	1011.71 ± 0.43
332.85 K, 13009 kPa, x2 = 0	1029.18 ± 0.44

Source: the NIST ThermoML archive (doi:10.1016/j.fluid.2005.07.017)
